Test results reported in patent US11524966B1 (Valo Early Discovery, Inc., priority 2017, dated 2022).

Molecular target: T1, USP28 (His-tagged USP28-FL-mammalian) (Homo sapiens, UniProt Q96RU2)
T1 construct: Expression of USP28 (1-1077)-TEV-6*His (pTT5 vector); made in house; host or cells: Expi293f cells (pTT5 vector)
T1 sequence (Q96RU2 1-1077): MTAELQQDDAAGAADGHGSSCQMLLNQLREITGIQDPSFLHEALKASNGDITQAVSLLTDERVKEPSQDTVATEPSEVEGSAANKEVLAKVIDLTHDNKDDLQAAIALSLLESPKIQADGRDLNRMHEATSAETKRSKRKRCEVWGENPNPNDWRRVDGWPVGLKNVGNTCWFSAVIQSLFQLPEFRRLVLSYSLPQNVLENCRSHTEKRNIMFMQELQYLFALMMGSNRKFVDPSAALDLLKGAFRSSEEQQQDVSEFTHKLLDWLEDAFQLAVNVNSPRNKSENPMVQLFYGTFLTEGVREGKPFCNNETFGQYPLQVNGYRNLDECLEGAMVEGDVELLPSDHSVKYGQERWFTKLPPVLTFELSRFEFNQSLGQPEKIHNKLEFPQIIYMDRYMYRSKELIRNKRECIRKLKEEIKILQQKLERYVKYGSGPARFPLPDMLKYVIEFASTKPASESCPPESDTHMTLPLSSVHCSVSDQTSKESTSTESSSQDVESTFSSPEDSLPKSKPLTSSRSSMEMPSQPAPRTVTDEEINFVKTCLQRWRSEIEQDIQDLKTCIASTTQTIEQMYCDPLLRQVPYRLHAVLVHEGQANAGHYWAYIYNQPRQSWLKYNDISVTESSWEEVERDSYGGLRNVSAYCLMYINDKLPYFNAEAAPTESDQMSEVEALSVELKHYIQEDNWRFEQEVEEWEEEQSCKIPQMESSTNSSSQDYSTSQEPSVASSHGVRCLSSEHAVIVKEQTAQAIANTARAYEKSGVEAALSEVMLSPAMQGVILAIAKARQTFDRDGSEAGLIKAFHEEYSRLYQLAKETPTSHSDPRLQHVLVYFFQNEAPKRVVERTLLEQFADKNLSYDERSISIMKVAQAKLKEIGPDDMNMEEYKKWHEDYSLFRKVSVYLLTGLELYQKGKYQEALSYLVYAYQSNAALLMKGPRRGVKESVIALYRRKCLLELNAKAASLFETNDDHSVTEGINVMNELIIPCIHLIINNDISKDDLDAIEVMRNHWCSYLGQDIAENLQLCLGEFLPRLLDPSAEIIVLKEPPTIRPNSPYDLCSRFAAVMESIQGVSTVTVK
Assay: Ubiquitin-Rhodamine 110 Assay for USP28 Activity, Example A-1(a)
Type: biochemical
Conditions: Ub-Rh110 assay, Example A-1(a); read-out: USP28 A-1(a) IC50 range
How it was run: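 Full-length His-tagged USP28 (1-1077, Expi293F-expressed; […]) was preincubated 30 min with compound (25 μM–1.3 nM, 10-point 3-fold) in 20 mM Tris-HCl pH 8.0, 3 mM BME, 0.03% BGG, 0.01% Triton X-100. Ub-Rh110 (25 nM) was then added for 45 min at room temperature, stopped with citric acid, and read by fluorescence (485/535 nm).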

`Cc1ccc2c(N)c(C(=O)N[C@H]3COc4cc(N5CCNCC5)ccc4C3)sc2n1` (single isomer, unassigned) [Example 1-1] showed an IC50 of 0.001 to 0.05 µM.

`Cc1ccc2c(N)c(C(=O)N[C@@H]3COc4cc(N5CCNCC5)ccc4C3)sc2n1` (single isomer, unassigned) [Example 1-2] was tested, and the IC50 was 0.2 to 2 µM.

With `Cc1ccc2c(N)c(C(=O)N[C@H]3COc4cc(N5CC6CCC(C5)N6)ccc4C3)sc2n1` (single isomer, unassigned) [Example 1-3] the IC50 was 0.001 to 0.05 µM.

`Cc1ccc2c(N)c(C(=O)N[C@@H]3COc4cc(N5CC6CCC(C5)N6)ccc4C3)sc2n1` (single isomer, unassigned) [Example 1-4] gave an IC50 of 0.2 to 2 µM.

For `Cc1ccc2c(N)c(C(=O)N[C@H]3COc4cc(N5CC6CCCC(C5)N6)ccc4C3)sc2n1` (single isomer, unassigned) [Example 1-5], the IC50 was 0.001 to 0.05 µM.

Work on `Cc1ccc2c(N)c(C(=O)N[C@@H]3COc4cc(N5CC6CCCC(C5)N6)ccc4C3)sc2n1` (single isomer, unassigned) [Example 1-6] yielded an IC50 of 0.05 to 0.2 µM.

`Cc1ccc2c(N)c(C(=O)N[C@H]3COc4cc(N5CCN[C@H](C)[C@@H]5C)ccc4C3)sc2n1` (single isomer, unassigned) [Example 1-9] was tested, and the IC50 was 0.001 to 0.05 µM.

`Cc1ccc2c(N)c(C(=O)N[C@@H]3COc4cc(N5CCN[C@H](C)[C@@H]5C)ccc4C3)sc2n1` (single isomer, unassigned) [Example 1-10] gave an IC50 of 0.001 to 0.05 µM.

With `Cc1ccc2c(N)c(C(=O)N[C@H]3COc4cc(N5CCN[C@H](C)[C@H]5C)ccc4C3)sc2n1` (single isomer, unassigned) [Example 1-11] the IC50 was 0.001 to 0.05 µM.

Work on `Cc1ccc2c(N)c(C(=O)N[C@@H]3COc4cc(N5CCN[C@H](C)[C@H]5C)ccc4C3)sc2n1` (single isomer, unassigned) [Example 1-12] yielded an IC50 of 0.001 to 0.05 µM.

With `Cc1ccc2c(N)c(C(=O)N[C@H]3COc4cc(N5CCN[C@@H](C)[C@@H]5C)ccc4C3)sc2n1` (single isomer, unassigned) [Example 1-13] the IC50 was 0.05 to 0.2 µM.

`Cc1ccc2c(N)c(C(=O)N[C@@H]3COc4cc(N5CCN[C@@H](C)[C@@H]5C)ccc4C3)sc2n1` (single isomer, unassigned) [Example 1-14] showed an IC50 of 0.05 to 0.2 µM.

`Cc1nc2sc(C(=O)N[C@H]3COc4cc(N5CCNCC5)ccc4C3)c(N)c2cc1F` (single isomer, unassigned) [Example 1-15] was tested, and the IC50 was 0.001 to 0.05 µM.

In the case of `Cc1nc2sc(C(=O)N[C@@H]3COc4cc(N5CCNCC5)ccc4C3)c(N)c2cc1F` (single isomer, unassigned) [Example 1-16], the IC50 is reported as 0.2 to 2 µM.

`Nc1c(C(=O)N[C@H]2COc3cc(N4CC5CCC(C4)N5)ccc3C2)sc2ncc(F)cc12` (single isomer, unassigned) [Example 1-17] was tested, and the IC50 was 0.05 to 0.2 µM.

`Nc1c(C(=O)N[C@@H]2COc3cc(N4CC5CCC(C4)N5)ccc3C2)sc2ncc(F)cc12` (single isomer, unassigned) [Example 1-18] showed an IC50 greater than 2 µM.

`Cc1cnc2c(N)c(C(=O)N[C@H]3COc4cc(N5CCNCC5)ccc4C3)sc2n1` (single isomer, unassigned) [Example 1-21] gave an IC50 of 0.001 to 0.05 µM.

Work on `Cc1cnc2c(N)c(C(=O)N[C@@H]3COc4cc(N5CCNCC5)ccc4C3)sc2n1` (single isomer, unassigned) [Example 1-22] yielded an IC50 of 0.2 to 2 µM.

`CCn1ccc2cc(C(=O)N[C@@H]3COc4cc(N5CC6CCC(C5)N6)ccc4C3)cnc21` (single isomer, unassigned) [Example 1-27] gave an IC50 of 0.2 to 2 µM.

Molecule `CCn1ccc2cc(C(=O)N[C@H]3COc4cc(N5CC6CCC(C5)N6)ccc4C3)cnc21` (single isomer, unassigned) [Example 1-28] has an IC50 of 0.001 to 0.05 µM.

`Cc1ccc2c(N)c(C(=O)N[C@@H]3COc4cc(N5CC6CCC(C5)N6)cc(F)c4C3)sc2n1` (single isomer, unassigned) [Example 1-30] gave an IC50 of 0.2 to 2 µM.

`Cc1ccc2c(N)c(C(=O)N[C@H]3COc4cc(N5CCNCC5)c(OC(F)(F)F)cc4C3)sc2n1` (single isomer, unassigned) [Example 1-31] showed an IC50 of 0.2 to 2 µM.

Work on `Cc1ccc2c(N)c(C(=O)N[C@@H]3COc4cc(N5CCNCC5)c(OC(F)(F)F)cc4C3)sc2n1` (single isomer, unassigned) [Example 1-32] yielded an IC50 of 0.05 to 0.2 µM.

Work on `Cc1nc2sc(C(=O)N[C@H]3COc4cc(N5CCNCC5)cc(F)c4C3)c(N)c2s1` (single isomer, unassigned) [Example 1-37] yielded an IC50 greater than 2 µM.

`Cc1nc2sc(C(=O)N[C@@H]3COc4cc(N5CCNCC5)cc(F)c4C3)c(N)c2s1` (single isomer, unassigned) [Example 1-38] gave an IC50 of 0.001 to 0.05 µM.

For `Cc1nc2sc(C(=O)N[C@H]3COc4cc(N5CC6CCC(C5)N6)cc(F)c4C3)c(N)c2s1` (single isomer, unassigned) [Example 1-39], the IC50 was 0.001 to 0.05 µM.

`Cc1nc2sc(C(=O)N[C@@H]3COc4cc(N5CC6CCC(C5)N6)cc(F)c4C3)c(N)c2s1` (single isomer, unassigned) [Example 1-40] was tested, and the IC50 was 0.2 to 2 µM.

`Cc1ccc2c(N)c(C(=O)N[C@@H]3COc4cc(N5CC6CC(C5)N6)cc(F)c4C3)sc2n1` (single isomer, unassigned) [Example 1-41] gave an IC50 of 0.001 to 0.05 µM.

In the case of `Cc1ccc2c(N)c(C(=O)N[C@H]3COc4cc(N5CC6CC(C5)N6)cc(F)c4C3)sc2n1` (single isomer, unassigned) [Example 1-42], the IC50 is reported as 0.2 to 2 µM.

Work on `Cc1cnc2c(N)c(C(=O)N[C@H]3CCc4cc(N5CCNCC5)c(C)cc4C3)sc2n1` (single isomer, unassigned) [Example 2-34] yielded an IC50 of 0.05 to 0.2 µM.

Work on `Cc1cnc2c(N)c(C(=O)N[C@@H]3CCc4cc(N5CCNCC5)c(C)cc4C3)sc2n1` (single isomer, unassigned) [Example 2-35] yielded an IC50 greater than 2 µM.

In the case of `Cc1cnc2c(N)c(C(=O)N[C@H]3CCc4c(ccc(N5CCNCC5)c4C)C3)sc2n1` (single isomer, unassigned) [Example 2-36], the IC50 is reported as 0.2 to 2 µM.

With `Cc1cnc2c(N)c(C(=O)N[C@@H]3CCc4c(ccc(N5CCNCC5)c4C)C3)sc2n1` (single isomer, unassigned) [Example 2-37] the IC50 was 0.001 to 0.05 µM.

`CO[C@H]1CN(c2ccc3c(c2)OC[C@H](NC(=O)c2sc4nc(C)ccc4c2N)C3)C[C@@H]1N` (single isomer, unassigned) [Example 3-1] gave an IC50 of 0.001 to 0.05 µM.

`CO[C@@H]1CN(c2ccc3c(c2)OC[C@H](NC(=O)c2sc4nc(C)ccc4c2N)C3)C[C@H]1N` (single isomer, unassigned) [Example 3-2] showed an IC50 of 0.001 to 0.05 µM.

With `Cc1ccc2c(N)c(C(=O)N[C@H]3COc4cc(N5CCC[C@@](N)(C(F)(F)F)C5)ccc4C3)sc2n1` (single isomer, unassigned) [Example 3-3] the IC50 was 0.001 to 0.05 µM.

`Cc1ccc2c(N)c(C(=O)N[C@H]3COc4cc(N5CCC[C@](N)(C(F)(F)F)C5)ccc4C3)sc2n1` (single isomer, unassigned) [Example 3-4] was tested, and the IC50 was 0.001 to 0.05 µM.

`Cc1nc2sc(C(=O)N[C@H]3COc4cc(N5CC6CCC(C5)N6)ccc4C3)c(N)c2s1` [Example 1-23, N-((3R)-7-(3,8-diazabicyclo[3.2.1]octan-3-yl)chroman-3-yl)-6-amino-2-methylthieno[2,3-d]thiazole-5-carboxamide] was tested, and the IC50 was 0.001 to 0.05 µM.

With `Cc1nc2sc(C(=O)N[C@@H]3COc4cc(N5CC6CCC(C5)N6)ccc4C3)c(N)c2s1` [Example 1-24, N-((3S)-7-(3,8-diazabicyclo[3.2.1]octan-3-yl)chroman-3-yl)-6-amino-2-methylthieno[2,3-d]thiazole-5-carboxamide] the IC50 was 0.2 to 2 µM.

`Cc1nc2sc(C(=O)N[C@H]3COc4cc(N5CCNCC5)ccc4C3)c(N)c2s1` [Example 1-25, (R)-6-amino-2-methyl-N-(7-(piperazin-1-yl)chroman-3-yl)thieno[2,3-d]thiazole-5-carboxamide] showed an IC50 of 0.001 to 0.05 µM.

In the case of `Cc1nc2sc(C(=O)N[C@@H]3COc4cc(N5CCNCC5)ccc4C3)c(N)c2s1` [Example 1-26, (S)-6-amino-2-methyl-N-(7-(piperazin-1-yl)chroman-3-yl)thieno[2,3-d]thiazole-5-carboxamide], the IC50 is reported as 0.2 to 2 µM.

`Cc1ccc2c(N)c(C(=O)N[C@H]3COc4c(ccc(N5CCNCC5)c4F)C3)sc2n1` [Example 1-33, (R)-3-amino-N-(8-fluoro-7-(piperazin-1-yl)chroman-3-yl)-6-methylthieno[2,3-b]pyridine-2-carboxamide] was tested, and the IC50 was 0.001 to 0.05 µM.
